Counter-ions that a name gives are not always drawn.
Target: T1, porcine lipase (Sus scrofa, UniProt P00591)
T1 sequence (P00591 1-450): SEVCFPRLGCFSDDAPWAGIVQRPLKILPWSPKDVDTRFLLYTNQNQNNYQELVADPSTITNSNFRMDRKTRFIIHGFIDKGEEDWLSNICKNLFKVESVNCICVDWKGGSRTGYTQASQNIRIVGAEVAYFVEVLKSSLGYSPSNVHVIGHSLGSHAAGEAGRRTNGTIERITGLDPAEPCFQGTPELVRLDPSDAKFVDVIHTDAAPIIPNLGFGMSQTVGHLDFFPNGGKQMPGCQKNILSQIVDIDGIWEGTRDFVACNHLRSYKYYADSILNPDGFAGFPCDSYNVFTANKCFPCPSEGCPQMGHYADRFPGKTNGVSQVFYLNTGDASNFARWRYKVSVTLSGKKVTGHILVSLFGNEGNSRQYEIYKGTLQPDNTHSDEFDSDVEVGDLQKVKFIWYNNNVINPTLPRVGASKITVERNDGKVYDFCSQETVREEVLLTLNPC
Assay: Inhibition of the lyses of triglycerides (olive oil) by porcine lipase, colorimetric test of released fatty acids
Assay type: biochemical
Settings: for Absorbance Mean: 37° C., read at 546 nm
Protocol: The inhibition of the lyses of triglycerides in the presence of porcine lipase was evaluated by analysing the released fatty acids using a colorimetric test.
The test consists in two distinct phases, one enzymatic reaction test which enables the lyses of triglycerides to leave the olive oil in the presence of porcine lipase and, successively, a colorimetric essay to determine the released fatty acids formed.
The porcine lipase, in the presence of the substrata (olive oil) and in opportune incubation conditions, catalyzes the following reaction:
Triglycerides+H2O→Diglycerides+Fatty acids
The dose of fatty acids allows indirect evaluation of the enzymatic activity and the lyses of triglycerides.
To evacuate the inhibition activity of the substance being analysed, three different concentrations of the substance under examination (5%, 1% and 0.5% in water) were tested at two different times (15 and 30 minutes).
In order to allow complete solubility, the 5% concentration was left at room temperature for 72 hours.
The porcine lipase was dissolved in deionised water at 4° C. just before use at the concentrations of 2000 U/ml. As a source of triglycerides olive oil was used. The buffer used for the reaction is Tris HCl 200 mM, pH=7.7 at 37° C. The test was conducted in the presence and in the absence of substance to be tested at different concentrations.
The following reagents are incubated at 37° C.: deionised water (150 μL), buffer (100 μL), olive oil (300 μL).
In the case of the sample (TEC 5%, 1% and 0.5%), the water was substituted with 150 μL of the solution to be tested.
Subsequent, the enzymatic solution (200 μL) was added and the reaction was allowed to develop for 30 and 15 minutes at a temperature of 37° C. On termination of the 15 and 30 minute periods, the reaction was blocked by adding 300 μL of ethanol at 95%.
50 μL of the solution containing the released fatty acids formed are used for the calorimetric dose, carried out using the special kit, that provides the necessary reagents to develop the reaction described below.
In the presence of the Acyl-CoA enzyme synthesis (AcylCS) and adenosin-5′-triphosphate (ATP) the released fatty acids are converted into acyl-CoA, adenosin-5′-monophosphate (AMP) and pyrophosphate. Acyl-CoA reacts with oxygen (O2) in the presence of Acyl coA oxidase (ACOD) forming 2,3-enoylcoenzymeA. The resulting H202 converts the 2,4,6-tribromo-3-hydroxy-benzoic acid (TBHB) and the 4-aminoantipyrine (4-AA) into a red stain in the presence of peroxidase (POD).
The samples are read at the 546 nm wave length, before and after the addition of ACOD and the reaction is conducted at room temperature.
Fatty acids+CoA+ATP→acyl-CoA+AMP+pyrophosphate
Acyl-CoA+O2→enoyl-coA+H202

[1] = TEC 0.5% in water, 15 min reaction
[2] = TEC 0.5% in water, 30 min reaction
[3] = TEC 1% in water, 15 min reaction
[4] = TEC 1% in water, 30 min reaction
[5] = TEC 5% in water, 15 min reaction
[6] = TEC 5% in water, 30 min reaction

fatty acids reduction compared to control (%) [1]: 18.04%
Absorbance Mean [1]: 0.584
fatty acids reduction compared to control (%) [2]: 11.10%
Absorbance Mean [2]: 0.084
fatty acids reduction compared to control (%) [3]: 17.12%
Absorbance Mean [3]: 0.5905
fatty acids reduction compared to control (%) [4]: 12.70%
Absorbance Mean [4]: 0.083
fatty acids reduction compared to control (%) [5]: 44.84%
Absorbance Mean [5]: 0.393
fatty acids reduction compared to control (%) [6]: 81.50%
Absorbance Mean [6]: 0.018
protection of the triglycerides from the enzymatic hydrolysis exercised by the lipases (maximum percentage according to the method followed, from the absorbance values): up to 85%
SMILES: CCOC(=O)CC(O)(CC(=O)OCC)C(=O)OCC [TEC, triethyl citrate]

Source: patent US20080287377A1, “Composition Based on Triethyl Citrate for the Prevention of Enzymatic Hydrolysis of Triglycerides” (priority 2005, published 2008)
